Reference: patent publication US20260055114A1, “IMIDAZO[1,2-B]PYRIDAZINE INHIBITORS OF CYCLIN-DEPENDENT KINASES” (H. LEE MOFFITT CANCER CENTER AND RESEARCH INSTITUTE, INC., priority 2022, published 2026)

Experiments:
CDK12 = CDK12 (Homo sapiens, UniProt Q9NYV4); experiment: Inhibition of cyclin-dependent kinase 12 (% enzyme activity at 1 uM and IC50); type: biochemical; settings: for remaining activity at 1 µM: 1 uM compound
CCNK = CCNK degradation (DC50, Dmax); type: cell-based; settings: for Dmax (%): CCNK degradation
MDA-MB-231 cell line = experiment: Antiproliferative activity, MDA-MB-231 cell line (GI50); type: cell-based; settings: Homo sapiens

Sequence of CDK12 (Q9NYV4 whole entry): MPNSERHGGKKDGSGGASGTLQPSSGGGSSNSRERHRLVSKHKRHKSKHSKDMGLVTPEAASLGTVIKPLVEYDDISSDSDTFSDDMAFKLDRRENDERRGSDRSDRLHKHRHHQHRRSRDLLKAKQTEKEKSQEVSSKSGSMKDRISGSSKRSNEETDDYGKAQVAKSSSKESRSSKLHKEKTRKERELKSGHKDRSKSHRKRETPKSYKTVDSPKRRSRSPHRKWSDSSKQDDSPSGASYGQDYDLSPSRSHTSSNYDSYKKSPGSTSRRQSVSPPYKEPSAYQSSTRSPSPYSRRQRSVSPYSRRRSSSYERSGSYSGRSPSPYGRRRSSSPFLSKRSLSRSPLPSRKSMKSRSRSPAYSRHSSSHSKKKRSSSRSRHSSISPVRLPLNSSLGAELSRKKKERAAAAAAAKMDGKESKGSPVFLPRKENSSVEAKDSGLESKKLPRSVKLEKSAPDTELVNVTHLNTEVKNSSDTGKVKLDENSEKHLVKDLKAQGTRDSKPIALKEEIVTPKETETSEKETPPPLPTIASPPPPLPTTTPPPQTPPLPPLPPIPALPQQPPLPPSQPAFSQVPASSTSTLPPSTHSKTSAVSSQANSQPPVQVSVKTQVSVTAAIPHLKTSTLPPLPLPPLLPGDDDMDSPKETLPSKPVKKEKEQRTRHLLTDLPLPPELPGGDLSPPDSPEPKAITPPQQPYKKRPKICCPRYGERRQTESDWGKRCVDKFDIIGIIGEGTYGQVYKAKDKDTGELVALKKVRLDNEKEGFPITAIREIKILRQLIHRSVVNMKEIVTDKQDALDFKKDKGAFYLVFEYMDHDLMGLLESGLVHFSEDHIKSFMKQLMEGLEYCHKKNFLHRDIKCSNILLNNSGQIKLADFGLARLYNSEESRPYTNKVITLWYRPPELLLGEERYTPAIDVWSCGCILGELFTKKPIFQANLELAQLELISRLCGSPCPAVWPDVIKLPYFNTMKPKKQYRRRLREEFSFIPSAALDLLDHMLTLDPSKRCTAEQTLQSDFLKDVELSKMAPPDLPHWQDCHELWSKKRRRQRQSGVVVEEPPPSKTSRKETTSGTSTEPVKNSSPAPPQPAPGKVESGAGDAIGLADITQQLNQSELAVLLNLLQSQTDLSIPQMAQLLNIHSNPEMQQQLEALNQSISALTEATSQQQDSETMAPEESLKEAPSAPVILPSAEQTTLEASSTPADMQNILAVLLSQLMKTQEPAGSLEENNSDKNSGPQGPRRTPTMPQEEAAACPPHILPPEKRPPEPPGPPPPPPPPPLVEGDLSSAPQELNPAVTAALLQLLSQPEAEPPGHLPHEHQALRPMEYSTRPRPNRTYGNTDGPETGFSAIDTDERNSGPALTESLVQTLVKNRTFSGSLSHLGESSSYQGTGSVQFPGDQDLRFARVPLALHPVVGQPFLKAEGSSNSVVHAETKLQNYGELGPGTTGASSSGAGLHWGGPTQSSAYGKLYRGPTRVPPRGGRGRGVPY
Sequence of CDK12 (O75909 whole entry partner): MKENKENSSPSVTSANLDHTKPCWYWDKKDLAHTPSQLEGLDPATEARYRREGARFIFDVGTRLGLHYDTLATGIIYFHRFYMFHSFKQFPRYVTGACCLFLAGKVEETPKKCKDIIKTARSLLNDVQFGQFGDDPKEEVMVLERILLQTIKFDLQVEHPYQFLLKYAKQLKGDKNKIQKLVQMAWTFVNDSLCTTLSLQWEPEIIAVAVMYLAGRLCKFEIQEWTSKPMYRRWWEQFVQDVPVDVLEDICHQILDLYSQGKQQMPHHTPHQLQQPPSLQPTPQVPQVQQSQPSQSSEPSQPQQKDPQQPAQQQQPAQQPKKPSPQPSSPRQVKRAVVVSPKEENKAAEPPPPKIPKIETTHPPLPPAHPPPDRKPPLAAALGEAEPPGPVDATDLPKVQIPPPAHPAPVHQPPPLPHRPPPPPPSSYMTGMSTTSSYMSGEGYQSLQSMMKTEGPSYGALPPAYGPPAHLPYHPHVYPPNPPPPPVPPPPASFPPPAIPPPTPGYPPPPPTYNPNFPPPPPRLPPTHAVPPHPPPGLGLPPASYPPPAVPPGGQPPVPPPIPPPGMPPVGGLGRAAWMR

IC50 (CDK12) [nM] | remaining activity at 1 µM (CDK12) [%] | DC50 (CCNK) [nM] | GI50 (MDA-MB-231 cell line) [nM] | SMILES | Dmax (%) (CCNK)
997 | 48 | 1800 | 9920 | CC(C)n1cc(-c2cnc3c(NCc4nc5cccc(Cl)c5[nH]4)cc(N4CCOCC4)nn23)cn1 [Cmpd 18, N-((7-chloro-1H-benzo[d]imidazol-2-yl)methyl)-3-(1-isopropyl-1H-pyrazol-4-yl)-6-morpholinoimidazo[1,2-b]pyridazin-8-amine] | 70
1110 | 53 | 10000 | 5180 | CC(C)n1cc(-c2cnc3c(NCc4nc5c(F)c(F)ccc5[nH]4)cc(N4CCN(C)CC4)nn23)cn1 [Cmpd 23, N-((4,5-difluoro-1H-benzo[d]imidazol-2-yl)methyl)-3-(1-isopropyl-1H-pyrazol-4-yl)-6-(4-methylpiperazin-1-yl) imidazo[1,2-b]pyridazin-8-amine] | 
1270 | 60 | 2100 | 10000 | CC(C)n1cc(-c2cnc3c(NCc4nc5c(F)c(F)ccc5[nH]4)cc(N4CCOCC4)nn23)cn1 [Cmpd 24, N-((4,5-difluoro-1H-benzo[d]imidazol-2-yl)methyl)-3-(1-isopropyl-1H-pyrazol-4-yl)-6-morpholinoimidazo[1,2-b]pyridazin-8-amine] | 65
 | 81 | 10000 | 1120 | CN1CCN(c2cc(NCc3nc4cc(Cl)c(Cl)cc4[nH]3)c3ncc(-c4cnn(C5CC5)c4)n3n2)CC1 [Cmpd 29, 3-(1-cyclopropyl-1H-pyrazol-4-yl)-N-((5,6-dichloro-1H-benzo[d]imidazol-2-yl)methyl)-6-(4-methylpiperazin-1-yl) imidazo[1,2-b]pyridazin-8-amine] | 
 | 83 | 3000 | 2120 | Clc1cc2nc(CNc3cc(N4CCOCC4)nn4c(-c5cnn(C6CC6)c5)cnc34)[nH]c2cc1Cl [Cmpd 30, 3-(1-cyclopropyl-1H-pyrazol-4-yl)-N-((5,6-dichloro-1H-benzo[d]imidazol-2-yl)methyl)-6-morpholinoimidazo[1,2-b]pyridazin-8-amine] | 70
1000 |  | 470 | 247 | CN1CCN(c2cc(NCc3nc4cc(Cl)c(Cl)cc4[nH]3)c3ncc(-c4cnn(C(F)F)c4)n3n2)CC1 [Cmpd 41, N-((5,6-dichloro-1H-benzo[d]imidazol-2-yl)methyl)-3-(1-(difluoromethyl)-1H-pyrazol-4-yl)-6-(4-methylpiperazin-1-yl) imidazo[1,2-b]pyridazin-8-amine] | 100
36 |  | 180 | 127 | FC(F)n1cc(-c2cnc3c(NCc4nc5cc(Cl)c(Cl)cc5[nH]4)cc(N4CCOCC4)nn23)cn1 [Cmpd 42, N-((5,6-dichloro-1H-benzo[d]imidazol-2-yl)methyl)-3-(1-(difluoromethyl)-1H-pyrazol-4-yl)-6-morpholinoimidazo[1,2-b]pyridazin-8-amine] | 100
292 |  | 150 | 49 | FC(F)n1cc(-c2cnc3c(NCc4nc5cc(Cl)c(Cl)cc5[nH]4)cc(N4CCNCC4)nn23)cn1 [Cmpd 43, N-((5,6-dichloro-1H-benzo[d]imidazol-2-yl)methyl)-3-(1-(difluoromethyl)-1H-pyrazol-4-yl)-6-(piperazin-1-yl) imidazo[1,2-b]pyridazin-8-amine] | 100
1420 |  | 440 | 154 | NC1CCN(c2cc(NCc3nc4cc(Cl)c(Cl)cc4[nH]3)c3ncc(-c4cnn(C(F)F)c4)n3n2)C1 (stereo not drawn) [Cmpd 44, 6-(3-aminopyrrolidin-1-yl)-N-((5,6-dichloro-1H-benzo[d]imidazol-2-yl)methyl)-3-(1-(difluoromethyl)-1H-pyrazol-4-yl) imidazo[1,2-b]pyridazin-8-amine] | 100
567 |  | 1200 | 365 | NC1CCN(c2cc(NCc3nc4cc(Cl)c(Cl)cc4[nH]3)c3ncc(-c4cnn(C(F)F)c4)n3n2)CC1 [Cmpd 45, 6-(4-aminopiperidin-1-yl)-N-((5,6-dichloro-1H-benzo[d]imidazol-2-yl)methyl)-3-(1-(difluoromethyl)-1H-pyrazol-4-yl) imidazo[1,2-b]pyridazin-8-amine] | 100
68 |  | 180 | 25 | CN1CCC(Nc2cc(NCc3nc4cc(Cl)c(Cl)cc4[nH]3)c3ncc(-c4cnn(C(F)F)c4)n3n2)CC1 [Cmpd 46, N8-((5,6-dichloro-1H-benzo[d]imidazol-2-yl)methyl)-3-(1-(difluoromethyl)-1H-pyrazol-4-yl)-N6-(1-methylpiperidin-4-yl) imidazo[1,2-b]pyridazine-6,8-diamine] | 100
18 |  | 30 | 7 | CC1(C)CN(c2cc(NCc3nc4cc(Cl)c(Cl)cc4[nH]3)c3ncc(-c4cnn(C(F)F)c4)n3n2)CCN1 [Cmpd 47, N-((5,6-dichloro-1H-benzo[d]imidazol-2-yl)methyl)-3-(1-(difluoromethyl)-1H-pyrazol-4-yl)-6-(3,3-dimethylpiperazin-1-yl) imidazo[1,2-b]pyridazin-8-amine] | 100

Further lines, the compound ahead of its results:

SMILES | IC50 (CDK12) [nM] | remaining activity at 1 µM (CDK12) [%] | DC50 (CCNK) [nM] | GI50 (MDA-MB-231 cell line) [nM] | Dmax (%) (CCNK)
CC(C)n1cc(-c2cnc3c(NCc4nc5cccc(Cl)c5[nH]4)cc(N4CCN(C)CC4)nn23)cn1 [Cmpd 17, N-((7-chloro-1H-benzo[d]imidazol-2-yl)methyl)-3-(1-isopropyl-1H-pyrazol-4-yl)-6-(4-methylpiperazin-1-yl) imidazo[1,2-b]pyridazin-8-amine] | 919 | 45 | 10000 | 5600 | 
Cc1ccnc2[nH]c(CNc3cc(N4CCN(C)CC4)nn4c(-c5cnn(C(C)C)c5)cnc34)nc12 [Cmpd 20, 3-(1-isopropyl-1H-pyrazol-4-yl)-N-((7-methyl-3H-imidazo[4,5-b]pyridin-2-yl)methyl)-6-(4-methylpiperazin-1-yl) imidazo[1,2-b]pyridazin-8-amine] | 531 | 30 | 10000 | 6670 | 
Cc1ccnc2[nH]c(CNc3cc(N4CCOCC4)nn4c(-c5cnn(C(C)C)c5)cnc34)nc12 [Cmpd 21, 3-(1-isopropyl-1H-pyrazol-4-yl)-N-((7-methyl-3H-imidazo[4,5-b]pyridin-2-yl)methyl)-6-morpholinoimidazo[1,2-b]pyridazin-8-amine] | 722 | 34 | 10000 | 10000 | 
CC(C)n1cc(-c2cnc3c(NCc4nc5c(F)cccc5[nH]4)cc(N4CCN(C)CC4)nn23)cn1 [Cmpd 26, N-((4-fluoro-1H-benzo[d]imidazol-2-yl)methyl)-3-(1-isopropyl-1H-pyrazol-4-yl)-6-(4-methylpiperazin-1-yl) imidazo[1,2-b]pyridazin-8-amine] | 1110 | 53 | 10000 | 6070 | 
CC(C)n1cc(-c2cnc3c(NCc4nc5c(F)cccc5[nH]4)cc(N4CCOCC4)nn23)cn1 [Cmpd 27, N-((4-fluoro-1H-benzo[d]imidazol-2-yl)methyl)-3-(1-isopropyl-1H-pyrazol-4-yl)-6-morpholinoimidazo[1,2-b]pyridazin-8-amine] | 1080 | 52 | 1600 | 10000 | 50
CN1CCN(c2cc(NCc3nc4cccc(Cl)c4[nH]3)c3ncc(-c4cnn(C5CC5)c4)n3n2)CC1 [Cmpd 32, N-((7-chloro-1H-benzo[d]imidazol-2-yl)methyl)-3-(1-cyclopropyl-1H-pyrazol-4-yl)-6-(4-methylpiperazin-1-yl) imidazo[1,2-b]pyridazin-8-amine] | 2080 | 45 | 1400 | 4430 | 50
Clc1cccc2nc(CNc3cc(N4CCOCC4)nn4c(-c5cnn(C6CC6)c5)cnc34)[nH]c12 [Cmpd 33, N-((7-chloro-1H-benzo[d]imidazol-2-yl)methyl)-3-(1-cyclopropyl-1H-pyrazol-4-yl)-6-morpholinoimidazo[1,2-b]pyridazin-8-amine] |  | 60 | 830 | 6160 | 65
CN1CCN(c2cc(NCc3nc4c(F)cccc4[nH]3)c3ncc(-c4cnn(C5CC5)c4)n3n2)CC1 [Cmpd 35, 3-(1-cyclopropyl-1H-pyrazol-4-yl)-N-((4-fluoro-1H-benzo[d]imidazol-2-yl)methyl)-6-(4-methylpiperazin-1-yl) imidazo[1,2-b]pyridazin-8-amine] |  | 49 | 1300 | 5170 | 80
Fc1cccc2[nH]c(CNc3cc(N4CCOCC4)nn4c(-c5cnn(C6CC6)c5)cnc34)nc12 [Cmpd 36, 3-(1-cyclopropyl-1H-pyrazol-4-yl)-N-((4-fluoro-1H-benzo[d]imidazol-2-yl)methyl)-6-morpholinoimidazo[1,2-b]pyridazin-8-amine] | 1220 | 45 | 830 | 4670 | 65
CN1CCN(c2cc(NCc3nc4c(F)c(F)ccc4[nH]3)c3ncc(-c4cnn(C5CC5)c4)n3n2)CC1 [Cmpd 38, 3-(1-cyclopropyl-1H-pyrazol-4-yl)-N-((4,5-difluoro-1H-benzo[d]imidazol-2-yl)methyl)-6-(4-methylpiperazin-1-yl) imidazo[1,2-b]pyridazin-8-amine] |  | 53 | 1600 | 5430 | 65
Fc1ccc2[nH]c(CNc3cc(N4CCOCC4)nn4c(-c5cnn(C6CC6)c5)cnc34)nc2c1F [Cmpd 39, 3-(1-cyclopropyl-1H-pyrazol-4-yl)-N-((4,5-difluoro-1H-benzo[d]imidazol-2-yl)methyl)-6-morpholinoimidazo[1,2-b]pyridazin-8-amine] |  | 61 | 920 | 10000 | 80
